Assay results reported in patent US20040248211A1, “ICAM-related protein” (priority 1992, published 2004).

Key:
Jurkat T leukemic cells = assay: F-actin and G-actin cell content; type: cell-based, human; details: ICR-1.1 without gam
Experimental: Cellular shape changes (such as cell spreading) as well as T-cell activation are associated with changes in the cytoskeletal actin network manifested by alteration of the ratio of globular actin (G-actin) to filamentous actin (F-actin). To test whether the engagement by ICAM-R antibodies of ICAM-R expressed on Jurkat T leukemic cells would induce changes in cellular actin ratios, studies measuring F-actin and G-actin cell content were carried out by methods known in the art.

human PBL = assay: Tyrosine phosphorylation in PBL after crosslinking; type: cell-based; details: soluble antibody 30 ug/ml, goat anti-mouse IgG 100 ug/ml
Experimental: Human PBL was obtained by Ficoll-Hypaque centrifugation and were incubated for 5 minutes with soluble ICR-4.2, OKT3 or anti-HLA-(1×10^7 cells were incubated with each antibody at 30 ug/ml). The cells were then washed and goat anti-mouse IgG (Cappell) was added to a final concentration of 100 ug/ml. After varying periods of time, the cells were lysed in detergent and lysates were electrophoresed on a 10% acrylamide gel, transferred to blotting paper. Blots were then probed with the anti-phosphotryosine antibody 4G10.

Jurkat T cells = assay: MIP-1 alpha ELISA, Jurkat on co-immobilized antibodies; type: cell-based, human; details: anti-ICAM-R 10 μg/ml co-immobilized with sub-optimal OKT3; OKT3 = sub-optimal concentration alone
Experimental: In addition to induction in monocytes, the expression of MIP-1 alpha in the Jurkat T leukemic cell line upon treatment with ICR-5.1, ICR-4.2 or ICR-9.2 was also examined. A sub-optimal dose of anti-CD3 antibody OKT3 (500 ng/ml) in PBS-CMF was plated onto flat-bottomed 96-well polystyrene plates and incubated overnight at 4° C. Then, after removing well contents, monoclonal antibody OKT3, ICR-5.1, ICR-4.2, or ICR-9.2 (10 μg/ml in PBS-CMF) was plated overnight at 4° C. Wells were blocked with 1% BSA in PBS-CMF at 37° C. for 1 hour and then rinsed in PBS-CMF. Jurkat T cells were seeded into wells at 2×10^5/well in RPMI/10%FCS+10 μg/ml polymyxin B—SO4. Cells were incubated in wells for 4, 6, or 8 hours or overnight at 37° C. in 5% CO2. Supernatants were harvested by transferring well contents to round-bottomed 96-well polystyrene plates, harvested by centrifuging for 5 minutes at 1200 rpm and by re-transferring to new round-bottomed plates. MIP-1 alpha release into the cell supernatant was assayed by a specific ELISA for MIP-1 alpha.

HL60 cells = assay: IL-8 release from HL60; type: cell-based, human
Experimental: Monocytes were isolated by elutriation from peripheral blood of normal donors. […] After blocking free sites, the cells were placed into the wells in medium. […] Those cells plated in wells treated with BSA plus or minus LPS were rounded and not spread. After 8 or 18 hours of incubation at 37° C., the medium was removed and assayed for IL-8 immunoreactivity. […] By 18 hours, IL-8 levels in media from ICR monoclonal antibody wells were much elevated over control levels. […] Similar experiments with monocytic cell lines (U937 and HL60) to determine if ICR monoclonal antibody can induce IL-8 release were conducted. U937 cells responded to each of the ICR monoclonal antibody treated wells by releasing IL-8 into the conditioned medium. […] No detectable morphological changes were detected with the U937 or HL60 cells.

[1] = tested on: SKW3 cell binding to ICAM-R; assay: Peptide inhibition of SKW3 cell adhesion to soluble ICAM-R coated plastic; type: cell-based, human; details: peptide at 1-2 mg/ml; PMA; soluble ICAM-R coated wells
Text: Based on amino acid sequence alignment with known β1 integrin binding domains in fibronectin and based on epitope mapping of anti-ICAM-R monoclonal antibodies that block cell adhesion (see Table 11 in Example 22), ICAM-R peptides corresponding to potential integrin binding sites were synthesized by Macromolecular Resources (Colorado State University, Fort Collins, Colo.). Four ICAM-R sequences which lie between or at the border of predicted beta strands in domains 1 and 3 of were chosen. Similar but not identical β-strand predictions for ICAM-1 are set out in Staunton et al., Cell, 61: 243-254 (1990). Inhibition was assayed using a system involving cell adhesion to soluble ICAM-R coated plastic. Calcein-labeled cells (see Example 7 Section A above) were incubated with peptide at 1-2 mg/ml for 20 minutes at 25° C. and the cells were transferred to wells of a 96-well plate previously coated with soluble ICAM-R (see Example 10) and containing 10 μg/ml final concentration phorbol 12-myristate 13-acetate (PMA). After 50 minutes, the plate was inverted in PBS for 10 minutes to remove unbound cells. Bound cells were quantitated using a fluorescence concentration analyzer.

THP-1 cells = assay: MIP-1 alpha secretion by THP-1 on immobilized soluble LFA-1; type: cell-based, human; details: background approximately 100 pg/ml
Experimental: A soluble version of LFA-1, when immobilized onto plastic wells, induced THP-1 cells to secrete approximately […] MIP-1 alpha, whereas background levels were approximately 100 pg/ml.

For “OKT3: anti-CD3 antibody [reference compound]”, the “time to peak F-actin content” value (Jurkat T leukemic cells; OKT3 plus gam) was ≤ 10 min, the F-actin content (Jurkat T leukemic cells; OKT3 plus goat anti-mouse crosslinker (gam)) was “rapid, transient increase in F-actin content” and the “tyrosine phosphorylation after crosslinking” value (human PBL) was “Phosphorylation of substrates were also observed”. The “MIP-1 alpha expression relative to BSA background” value (Jurkat T cells) was “three-fold”.

For lipopolysaccharide [LPS], the IL-8 release (HL60 cells) was “did induce a marked release”.

With “ICAM-1 70-74: ICAM-1 domain 1 peptide (DGQST, SEQ ID NO: 25)” the “% Inhibition CD18-Dependent Binding (SKW3)” value [1] was “did not inhibit binding”.

In the case of “soluble version of LFA-1: soluble version of LFA-1 immobilized onto plastic wells”, the MIP-1 alpha secreted (THP-1 cells) is reported as “approximately 1000 μg/ml”.
